For test [1], the system named is Mus musculus. Nature of the test: Anticonvulsant activity against pentylenetetrazole-induced seizures in Mus musculus NMRI (mouse) assessed as time of maximal effect at 20 mg/kg, ip administered 30 min before PTZ challenge. The format is functional. The note with it: route intraperitoneal.
Test [2] relates to Mus musculus. In words: Anticonvulsant activity against pentylenetetrazole-induced seizures in Mus musculus NMRI (mouse) assessed as time of maximal effect at 10 mg/kg, ip administered 30 min before PTZ challenge (reference value: 24.86 +/- 0.96 min). The format is functional. The note with it: route intraperitoneal.
In test [3] the test system is Mus musculus. Nature of the test: Anticonvulsant activity against pentylenetetrazole-induced seizures in Mus musculus NMRI (mouse) assessed as time of maximal effect at 5 mg/kg, ip administered 30 min before PTZ challenge. The format is functional. The note with it: route intraperitoneal.
In test [4] the target is Voltage-dependent L-type calcium channel subunit alpha-1C (Cavia porcellus, UniProt O35505). Nature of the test: Antagonist activity at Calcium channel in Cavia porcellus (guinea pig) ileal smooth muscle assessed as inhibition of 40 mM KCl-induced contraction compound pretreated for 15 min before KCl treatment.
Voltage-dependent L-type calcium channel subunit alpha-1C, sequence (O35505 whole entry): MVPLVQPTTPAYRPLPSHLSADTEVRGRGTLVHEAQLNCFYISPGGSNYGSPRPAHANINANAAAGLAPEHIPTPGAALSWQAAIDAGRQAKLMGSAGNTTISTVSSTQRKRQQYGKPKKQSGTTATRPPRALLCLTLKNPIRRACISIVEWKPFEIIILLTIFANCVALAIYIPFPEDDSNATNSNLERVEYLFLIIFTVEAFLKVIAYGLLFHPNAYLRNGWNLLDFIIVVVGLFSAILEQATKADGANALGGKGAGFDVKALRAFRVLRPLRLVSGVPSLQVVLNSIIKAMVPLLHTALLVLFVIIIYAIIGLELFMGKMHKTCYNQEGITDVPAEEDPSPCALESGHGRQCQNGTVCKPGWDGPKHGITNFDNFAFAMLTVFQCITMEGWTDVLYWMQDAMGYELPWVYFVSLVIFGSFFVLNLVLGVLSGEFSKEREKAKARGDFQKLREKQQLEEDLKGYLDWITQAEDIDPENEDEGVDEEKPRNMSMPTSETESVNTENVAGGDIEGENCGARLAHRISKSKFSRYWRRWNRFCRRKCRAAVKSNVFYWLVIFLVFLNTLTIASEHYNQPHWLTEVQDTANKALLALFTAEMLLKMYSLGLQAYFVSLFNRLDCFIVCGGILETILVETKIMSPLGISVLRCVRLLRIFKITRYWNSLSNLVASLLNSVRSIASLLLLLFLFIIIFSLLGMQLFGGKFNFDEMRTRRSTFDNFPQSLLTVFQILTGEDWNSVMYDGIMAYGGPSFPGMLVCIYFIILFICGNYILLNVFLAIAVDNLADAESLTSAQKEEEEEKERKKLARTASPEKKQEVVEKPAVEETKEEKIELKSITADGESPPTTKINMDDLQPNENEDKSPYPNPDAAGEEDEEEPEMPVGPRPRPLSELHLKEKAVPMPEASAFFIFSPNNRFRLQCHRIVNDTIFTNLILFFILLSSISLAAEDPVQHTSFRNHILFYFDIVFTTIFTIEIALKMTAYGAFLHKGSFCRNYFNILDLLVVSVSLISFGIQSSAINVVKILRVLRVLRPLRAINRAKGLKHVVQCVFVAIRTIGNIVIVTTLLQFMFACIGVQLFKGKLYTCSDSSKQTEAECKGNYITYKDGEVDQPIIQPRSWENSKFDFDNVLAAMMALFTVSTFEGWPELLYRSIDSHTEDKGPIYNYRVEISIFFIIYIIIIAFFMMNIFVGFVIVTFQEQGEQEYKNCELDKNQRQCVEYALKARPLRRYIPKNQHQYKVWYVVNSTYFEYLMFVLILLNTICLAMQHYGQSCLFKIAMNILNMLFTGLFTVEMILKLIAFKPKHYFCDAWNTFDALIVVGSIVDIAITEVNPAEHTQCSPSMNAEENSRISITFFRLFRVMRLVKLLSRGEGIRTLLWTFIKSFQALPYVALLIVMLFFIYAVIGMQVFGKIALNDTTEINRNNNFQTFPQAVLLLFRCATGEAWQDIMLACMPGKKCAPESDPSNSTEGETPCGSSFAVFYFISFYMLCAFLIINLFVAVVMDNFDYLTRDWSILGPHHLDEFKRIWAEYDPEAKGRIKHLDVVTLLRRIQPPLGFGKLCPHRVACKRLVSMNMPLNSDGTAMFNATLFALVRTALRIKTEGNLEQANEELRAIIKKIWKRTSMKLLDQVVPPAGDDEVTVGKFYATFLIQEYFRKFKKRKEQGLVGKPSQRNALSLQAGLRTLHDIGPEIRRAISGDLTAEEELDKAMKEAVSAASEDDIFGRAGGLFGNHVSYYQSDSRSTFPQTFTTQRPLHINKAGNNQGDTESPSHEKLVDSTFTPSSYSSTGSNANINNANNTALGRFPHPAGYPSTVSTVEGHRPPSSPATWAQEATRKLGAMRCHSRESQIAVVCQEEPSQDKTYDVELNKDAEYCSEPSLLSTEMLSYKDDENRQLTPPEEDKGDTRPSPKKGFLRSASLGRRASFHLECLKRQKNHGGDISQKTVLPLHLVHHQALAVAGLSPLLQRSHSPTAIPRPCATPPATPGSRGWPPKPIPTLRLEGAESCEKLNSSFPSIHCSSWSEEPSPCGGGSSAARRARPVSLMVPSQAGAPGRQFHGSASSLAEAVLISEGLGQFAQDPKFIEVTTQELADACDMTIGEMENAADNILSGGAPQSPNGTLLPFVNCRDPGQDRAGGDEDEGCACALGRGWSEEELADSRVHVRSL
In test [5] the test system is Mus musculus. Nature of the test: Anticonvulsant activity against pentylenetetrazole-induced seizures in Mus musculus NMRI (mouse) assessed as time of maximal effect at 20 mg/kg, ip administered 15 min before PTZ challenge. Conditions: route intraperitoneal. The format is functional.
Test [6] has as its system Mus musculus. Nature of the test: Anticonvulsant activity against pentylenetetrazole-induced seizures in Mus musculus NMRI (mouse) assessed as time of maximal effect at 10 mg/kg, ip administered 15 min before PTZ challenge (reference value: 24.86 +/- 0.96 min). The format is functional. The note with it: route intraperitoneal.
For test [7], the system named is Mus musculus. Nature of the test: Anticonvulsant activity against pentylenetetrazole-induced seizures in Mus musculus NMRI (mouse) assessed as time of maximal effect at 5 mg/kg, ip administered 15 min before PTZ challenge. The note with it: route intraperitoneal. Type of test: functional.
Test [8] relates to Mus musculus. Nature of the test: Anticonvulsant activity against pentylenetetrazole-induced seizures in Mus musculus NMRI (mouse) assessed as time of maximal effect at 20 mg/kg, ip administered 60 min before PTZ challenge. Type of test: functional. Conditions: route intraperitoneal.
Test [9] concerns Mus musculus. Nature of the test: Anticonvulsant activity against pentylenetetrazole-induced seizures in Mus musculus NMRI (mouse) assessed as time of maximal effect at 60 mg/kg, ip administered 15 min before PTZ challenge (reference value: 24.86 +/- 0.96 min). Type of test: functional. The note with it: route intraperitoneal.
Test [10] relates to Mus musculus. Nature of the test: Anticonvulsant activity against pentylenetetrazole-induced seizures in Mus musculus NMRI (mouse) assessed as time of maximal effect at 5 mg/kg, ip administered 60 min before PTZ challenge. The format is functional. The note with it: route intraperitoneal.

With `COC(=O)C1=C(C)NC(C)=C(C(=O)OC)C1c1csc(-c2ccc(Cl)cc2)n1`, the Time in test [1] is recorded as 44.3 min; in test [2], 40.94 min; in test [3] it was 39.05 min. The IC50 in [4] amounted to 4.43 µM.

On to `CCOC(=O)C1=C(C)NC(C)=C(C(=O)OCC)C1c1csc(-c2ccc(Cl)cc2)n1`, for which the Time was 39.07 min in [1], 32.64 min in test [2] and 27.76 min in test [3]. For the same compound, the IC50 in test [4] amounted to 3.65 µM.

For the compound `CCCOC(=O)C1=C(C)NC(C)=C(C(=O)OCCC)C1c1csc(-c2ccc(Cl)cc2)n1`, the Time in [1] is on record as 42.05 min; in test [2], 36.26 min; in [3], 34.75 min. The IC50 in [4] was found to be 4.8 µM.

As to `CC1=C(C(=O)OC(C)C)C(c2csc(-c3ccc(Cl)cc3)n2)C(C(=O)OC(C)C)=C(C)N1`, the IC50 in [4] turned out to be 37.2 µM.

Regarding `CC1=C(C(=O)OCC(C)C)C(c2csc(-c3ccc(Cl)cc3)n2)C(C(=O)OCC(C)C)=C(C)N1`, the values for the Time in test [1], in test [2] and in [3] were 47.62 min, 39.32 min and 37.5 min, respectively. Further, in test [4], the IC50 amounted to 24.9 µM.

For the compound `CC1=C(C(=O)OC(C)(C)C)C(c2csc(-c3ccc(Cl)cc3)n2)C(C(=O)OC(C)(C)C)=C(C)N1`, in [4], the IC50 worked out at 21 µM.

`CC1=C(C(=O)OC2CCCC2)C(c2csc(-c3ccc(Cl)cc3)n2)C(C(=O)OC2CCCC2)=C(C)N1`: the IC50 in [4] is 19 µM.

With `CC1=C(C(=O)OC2CCCCC2)C(c2csc(-c3ccc(Cl)cc3)n2)C(C(=O)OC2CCCCC2)=C(C)N1`, the figures for the Time in test [5], in test [6] and in [7] were 37.86 min, 35.59 min and 35.65 min, respectively. Moreover, the IC50 in [4] was determined as 11 µM.

On to `CC1=C(C(=O)OCc2ccccc2)C(c2csc(-c3ccc(Cl)cc3)n2)C(C(=O)OCc2ccccc2)=C(C)N1`, for which the IC50 in [4] came to 11 µM.

With `CC1=C(C(=O)OCCc2ccccc2)C(c2csc(-c3ccc(Cl)cc3)n2)C(C(=O)OCCc2ccccc2)=C(C)N1`, the IC50 in test [4] amounted to 500 µM.

On to `CC1=C(C(=O)OC(C)c2ccccc2)C(c2csc(-c3ccc(Cl)cc3)n2)C(C(=O)OC(C)c2ccccc2)=C(C)N1` (centres undefined), for which the IC50 in test [4] worked out at 400 µM.

On to `CCOC(=O)C1=C(C)NC(C)=C(C(=O)OC)C1c1csc(-c2ccc(Cl)cc2)n1` (centres undefined), for which the IC50 in test [4] was determined as 22 µM.

Consider `CCCOC(=O)C1=C(C)NC(C)=C(C(=O)OC)C1c1csc(-c2ccc(Cl)cc2)n1` (centres undefined), for which the Time in test [1] was 43.8 min; in [2], 37.6 min; in test [3] it was 31.7 min. For the same compound, the IC50 in [4] came to 5.92 µM.

On to `CCCOC(=O)C1=C(C)NC(C)=C(C(=O)OCC)C1c1csc(-c2ccc(Cl)cc2)n1` (centres undefined), for which the Time in test [8] is 42.32 min; in test [9], 37.07 min; in test [10], 34.5 min. Further, the IC50 in test [4] turned out to be 4.09 µM.

`COC(=O)C1=C(C)NC(C)=C(C(=O)OC(C)C)C1c1csc(-c2ccc(Cl)cc2)n1` (centres undefined): the IC50 in test [4] was 13.6 µM.

For the compound `CCOC(=O)C1=C(C)NC(C)=C(C(=O)OC(C)C)C1c1csc(-c2ccc(Cl)cc2)n1` (centres undefined), the Time in [1] is reported as 44.64 min; in [2], 35.87 min; in [3], 34.2 min. In addition, in test [4], the IC50 was 2.55 µM.

Consider `COC(=O)C1=C(C)NC(C)=C(C(=O)OCC(C)C)C1c1csc(-c2ccc(Cl)cc2)n1` (centres undefined), for which the IC50 in test [4] is 46.9 µM.

As to `CCOC(=O)C1=C(C)NC(C)=C(C(=O)OCC(C)C)C1c1csc(-c2ccc(Cl)cc2)n1` (centres undefined), in test [4], the IC50 was determined as 15.4 µM.

In the case of `COC(=O)C1=C(C)NC(C)=C(C(=O)OC(C)(C)C)C1c1csc(-c2ccc(Cl)cc2)n1` (centres undefined), the IC50 in [4] is 46 µM.

With `CCOC(=O)C1=C(C)NC(C)=C(C(=O)OC(C)(C)C)C1c1csc(-c2ccc(Cl)cc2)n1` (centres undefined), the IC50 in test [4] was found to be 91 µM.

Turning to `COC(=O)C1=C(C)NC(C)=C(C(=O)OC2CCCC2)C1c1csc(-c2ccc(Cl)cc2)n1` (centres undefined), the Time in test [1] was determined as 42.7 min; in test [2] it was 34.42 min; in test [3], 33.22 min. Moreover, in test [4], the IC50 was 7.29 µM.

As to `CCOC(=O)C1=C(C)NC(C)=C(C(=O)OC2CCCC2)C1c1csc(-c2ccc(Cl)cc2)n1` (centres undefined), the results for the Time in [1], in test [2] and in [3] were 47.8 min, 38.8 min and 39.6 min, respectively. In [4], the IC50 came to 8.38 µM.

As for `COC(=O)C1=C(C)NC(C)=C(C(=O)OC2CCCCC2)C1c1csc(-c2ccc(Cl)cc2)n1` (centres undefined), the IC50 in test [4] is 71.9 µM.

Turning to `CCOC(=O)C1=C(C)NC(C)=C(C(=O)OC2CCCCC2)C1c1csc(-c2ccc(Cl)cc2)n1` (centres undefined), the IC50 in test [4] was determined as 100 µM.

For `COC(=O)C1=C(C)NC(C)=C(C(=O)OCc2ccccc2)C1c1csc(-c2ccc(Cl)cc2)n1` (centres undefined), the IC50 in test [4] worked out at 64.9 µM.

For `CCOC(=O)C1=C(C)NC(C)=C(C(=O)OCc2ccccc2)C1c1csc(-c2ccc(Cl)cc2)n1` (centres undefined), the Time in test [8] was 39.6 min; in test [9], 37.82 min; in [10], 33.87 min. In addition, the IC50 in test [4] worked out at 3.29 µM.

In the case of `COC(=O)C1=C(C)NC(C)=C(C(=O)OCCc2ccccc2)C1c1csc(-c2ccc(Cl)cc2)n1` (centres undefined), the IC50 in test [4] turned out to be 10.2 µM.

Consider `CCOC(=O)C1=C(C)NC(C)=C(C(=O)OCCc2ccccc2)C1c1csc(-c2ccc(Cl)cc2)n1` (centres undefined), for which the IC50 in test [4] is 12.1 µM.

With `COC(=O)C1=C(C)NC(C)=C(C(=O)OC(C)c2ccccc2)C1c1csc(-c2ccc(Cl)cc2)n1` (centres undefined), the figures for the Time in [1], in test [2] and in test [3] were 43.06 min, 42.1 min and 27.82 min, respectively. In addition, in test [4], the IC50 was found to be 7.62 µM.

On to `CCOC(=O)C1=C(C)NC(C)=C(C(=O)OC(C)c2ccccc2)C1c1csc(-c2ccc(Cl)cc2)n1` (centres undefined), for which the IC50 in test [4] was found to be 13.8 µM.

For `COC(=O)C1=C(C)NC(C)=C(C(=O)OC)C1c1ccccc1[N+](=O)[O-]` [NIFEDIPINE], the Time in test [1] is 48.3 min; in test [2] it was 43.88 min; in test [3], 40.66 min.

A word on the IC50: it is the concentration needed to halve the response being measured.

Source of the values: ChEMBL document CHEMBL3045495, “Lipophilic 2-(4-chlorophenyl)-4-thiazolyl-1,4-dihydropyridines: synthesis, calcium channel antagonist activity, and protection against pentylenetetrazole-induced seizure” (Med Chem Res, 2009).
